Laboratory results from patent publication US4160768A, “Anti-inflammatory 3-benzofuranyl imidazothiazole” (Diamond Shamrock Corporation, priority 1978, dated 1979).
Where a name gives a salt, the structure may show the parent alone. Read-outs that look alike come from different tables or passages of the source.

Key:
[1] = adjuvant-induced arthritis test (Newbould); assay type: in vivo, rat
Description: Selected compounds were further subjected to advanced evaluations. Specifically, in view of the interesting activity of compounds 1 and 9, those compounds were further subjected to the adjuvant-induced arthritis test. This test requires one month (from day 0 to day 31). In the first seventeen days (0-17), the disease is in a developing stage, while for the remainder of the month (18-31) the disease is fully developed.
The method is essentially that of Newbould, Brit. J. Pharmacol. 21: 127, 1963. The test compounds were studied in the developing arthritis state and in the established arthritic state. Separate groups of twelve rats were administered the compounds orally using methylcellulose as the vehicle. In the study on the developing disease, administration of the test compounds begins on day 1 and on day 2 each animal is injected with 0.05 ml/kg of a 0.5% suspension of heat-killed Mycobacterium tuberculosis into the planter surface of the left hind paw. Foot volumes were measured by a water displacement device on the day of administration of the Mycobacterium and again on days 3, 10 and 17. The test compounds were administered once daily. Body weights were recorded daily and the animals were examined for the spread of the inflammation and the degree of secondary lesions. For study in the established disease, another group of rats are injected with the Mycobacterium and foot volumes are measured. After twenty days volumes are again measured and administration of the test compounds begins and continues for eleven days. Foot volume measurements are repeated on day 27 and day 31. The extent of the spread of the inflammation and the degree of lesions are recorded daily as are the body weights. The effect of the test compounds is measured by the percentage reduction in left hind paw volumes as compared to the hind paw volumes of the control groups.

[2] = carrageenin-induced edema in the hind paw of the rat (modified Winter et al.); assay type: in vivo; conditions: for ED50: dose which reduced edema formation by about 25% or more vs mean control in 50% of the animals
Method: (§1) The procedure used for measuring the inhibition of carrageenin-induced edema is a slight modification of the method of Winter et al., Proc. Soc. Explt. Biol. Med. 111: 544 (1962). The device used for measurement of the paw volume is an adaptation of the water displacement procedure described by Adamkiewicz et al., Can. J. Biochem. Physiol. 33: 332 (1955). The above compounds were studied for their effectiveness in preventing the edema caused by the intraplantar injection of 0.05 ml of a sterile 1.0% solution of carrageenin. Compounds were administered orally, except when indicated as intraperitoneally (i.p.), one hour prior to the injection of the carrageenin into the left hind paw of rats. At peak swelling time (3 hours) the volume of edema was calculated by differential paw volumes.
Table I (in which Ph=phenyl) sets forth results obtained at the indicated dosages with compounds (or their salts) of the formula [drawing 8]
Following the procedure set forth in Example 4, hydrated compounds according to the following formula were evaluated for antiinflammatory effect with the results shown in Table II: [drawing 9]
Certain of the compounds of the invention were further tested to determine their ED50 values. […] Typical results of these tests appear in Table III.

[3] = adrenalectomized assay (carrageenin edema in adrenalectomized rats); assay type: in vivo, Adrenalectomized Sprague Dawley Male Rats; conditions: Rattus norvegicus, po, 3 h, read-out: % Reduction (adrenalectomized rats)
Method: as §1
Next, certain of the compounds were subjected to a secondary screen designated the adrenalectomized assay. In this series of tests, the method used was identical to that described above, except that the animals used were adrenalectomized several days prior to assay. Since the results in the nonadrenalectomized animals were similar to those obtained in the adrenalectromized animals, it can be inferred that the antiinflammatory activity of the test compounds was not caused by the release of endogeneous adrenocortical steriods.

[4] = Rattus norvegicus, po, 3 h, Table I, 50 mg/kg, oral, 1 h before carrageenin, 3 h, read-out: Reduction % (carrageenin edema)
[5] = Rattus norvegicus, po, 3 h, Table I, 25 mg/kg, oral, 1 h before carrageenin, 3 h, read-out: Reduction % (carrageenin edema)
[6] = Rattus norvegicus, po, 3 h, Table I, 40 mg/kg, oral, 1 h before carrageenin, 3 h, read-out: Reduction % (carrageenin edema)

SMILES: C1=C(c2ccccc2)N2CCN=C2S1 [Compound 1]
- % reduction in swelling, hind paws ([1]; 20 mg/kg, day 3, developing (prophylactic)): 18%
- % reduction in swelling, hind paws ([1]; 20 mg/kg, day 10, developing (prophylactic)): 13%
- % reduction in swelling, hind paws ([1]; 20 mg/kg, day 17, developing (prophylactic)): 18%
- % reduction in swelling, hind paws ([1]; 20 mg/kg, day 20, developed (therapeutic)): 5%
- % reduction in swelling, hind paws ([1]; 20 mg/kg, day 27, developed (therapeutic)): 0%
- % reduction in swelling, hind paws ([1]; 20 mg/kg, day 31, developed (therapeutic)): 0%
- % reduction in swelling, hind paws ([1]; 40 mg/kg, day 3, developing (prophylactic)): 10%
- % reduction in swelling, hind paws ([1]; 40 mg/kg, day 10, developing (prophylactic)): 21%
- % reduction in swelling, hind paws ([1]; 40 mg/kg, day 17, developing (prophylactic)): 43%
- % reduction in swelling, hind paws ([1]; 40 mg/kg, day 20, developed (therapeutic)): 4%
- % reduction in swelling, hind paws ([1]; 40 mg/kg, day 27, developed (therapeutic)): 14%
- % reduction in swelling, hind paws ([1]; 40 mg/kg, day 31, developed (therapeutic)): 8%
- inhibition in vivo at 50 mg/kg [2, 4]: 47%
- ED50 ([2]; Rattus norvegicus, po, 3 h): 25 mg/kg
- inhibition in vivo at 50 mg/kg [3]: 32%

SMILES: Cc1ccc(C2=CSC3=NCCN23)cc1C [Compound 2]
- inhibition in vivo at 50 mg/kg [2, 4]: 27%

SMILES: CSC1=C(C(C)(C)C)N2CCN=C2S1 [Compound 3, 2-methylthio-3-t-butyl-5,6-dihydro-4H-imidazo-[2,1-b] thiazole hydrobromide]
- inhibition in vivo at 50 mg/kg [2, 4]: 26%

SMILES: CCC1=C(c2ccccc2)N2CCN=C2S1 [Compound 4]
- inhibition in vivo at 25 mg/kg [2, 5]: 41%
- inhibition in vivo at 25 mg/kg [3]: 31%

SMILES: CCC1=C(c2ccc(Cl)cc2)N2CCN=C2S1 [Compound 5]
- inhibition in vivo at 25 mg/kg [2, 5]: 33%
- inhibition in vivo at 25 mg/kg [3]: 15%

SMILES: CC1=C(c2ccc(Cl)cc2)N2CCN=C2S1 [Compound 6]
- inhibition in vivo at 25 mg/kg [2, 5]: 45%
- inhibition in vivo at 25 mg/kg [3]: 19%

SMILES: Brc1ccc(C2=CSC3=NCCN23)cc1 [Compound 7]
- inhibition in vivo at 50 mg/kg [2, 4]: 70%

SMILES: CC(C)(C)C1=CSC2=NCCN12 [Compound 8]
- inhibition in vivo at 50 mg/kg [2, 4]: 56%
- inhibition in vivo at 25 mg/kg [3]: 23%

SMILES: CC1=CSC2=NCCN12 [Compound 9]
- % reduction in swelling, hind paws ([1]; 24 mg/kg, day 3, developing (prophylactic)): 21%
- % reduction in swelling, hind paws ([1]; 24 mg/kg, day 10, developing (prophylactic)): 23%
- % reduction in swelling, hind paws ([1]; 24 mg/kg, day 17, developing (prophylactic)): 15%
- % reduction in swelling, hind paws ([1]; 24 mg/kg, day 20, developed (therapeutic)): 5%
- % reduction in swelling, hind paws ([1]; 24 mg/kg, day 27, developed (therapeutic)): 0%
- % reduction in swelling, hind paws ([1]; 24 mg/kg, day 31, developed (therapeutic)): 0%
- % reduction in swelling, hind paws ([1]; 50 mg/kg, day 3, developing (prophylactic)): 18%
- % reduction in swelling, hind paws ([1]; 50 mg/kg, day 10, developing (prophylactic)): 17%
- % reduction in swelling, hind paws ([1]; 50 mg/kg, day 17, developing (prophylactic)): 6%
- % reduction in swelling, hind paws ([1]; 50 mg/kg, day 20, developed (therapeutic)): 3%
- % reduction in swelling, hind paws ([1]; 50 mg/kg, day 27, developed (therapeutic)): 3%
- % reduction in swelling, hind paws ([1]; 50 mg/kg, day 31, developed (therapeutic)): 7%
- inhibition in vivo at 50 mg/kg [2, 4]: 46%
- ED50 ([2]; Rattus norvegicus, po, 3 h): 20 mg/kg
- inhibition in vivo at 25 mg/kg [3]: 46%

SMILES: C1=C(c2cccc3ccccc23)N2CCN=C2S1 [Compound 10]
- inhibition in vivo at 50 mg/kg [2, 4]: 58%
- inhibition in vivo at 50 mg/kg [3]: 18%

SMILES: CC(C)(C)C1=CSC2=NCCN12 [Compound 11]
- Reduction (%) (carrageenin edema) ([2]; Table I, 50 mg/kg, oral, 1 h before carrageenin, 3 h, 50 mg/kg): 48%

SMILES: CC1CN2C(C(C)(C)C)=CSC2=N1 (stereo not drawn) [Compound 12]
- inhibition in vivo at 50 mg/kg [2, 4]: 54%

SMILES: CC1=CSC2=NC(C)CN12 (stereo not drawn) [Compound 13]
- inhibition in vivo at 50 mg/kg [2, 4]: 24%

SMILES: CC1=C(c2ccccc2)N2CCN=C2S1 [Compound 14]
- inhibition in vivo at 50 mg/kg [2, 4]: 49%

SMILES: CC1=C(c2ccccc2)SC2=NCCN21 [Compound 15]
- inhibition in vivo at 50 mg/kg [2, 4]: 53%

SMILES: CC1CN2C(c3ccc(Cl)cc3)=CSC2=N1 (stereo not drawn) [Compound 16]
- inhibition in vivo at 50 mg/kg [2, 4]: 58%
- inhibition in vivo at 50 mg/kg [3]: 16%

SMILES: CC1CN2C(c3ccc([N+](=O)[O-])cc3)=CSC2=N1 (stereo not drawn) [Compound 17]
- inhibition in vivo at 50 mg/kg [2, 4]: 48%
- inhibition in vivo at 50 mg/kg [3]: 60%

SMILES: CC1CN2C(c3ccc(Cl)c(Cl)c3)=CSC2=N1 (stereo not drawn) [Compound 18]
- inhibition in vivo at 50 mg/kg [2, 4]: 42%

SMILES: O=C(O)CC1=C(c2ccccc2)N2CCN=C2S1 [Compound 19, 3-phenyl-5,6-dihydro-4H-imidazo[2,1-b] thiazo-2-yl-acetic acid hydrobromide]
- inhibition in vivo at 100 mg/kg ([2]; Rattus norvegicus, ip, 3 h, Table I, 100 mg/kg i.p., 1 h before carrageenin, 3 h, read-out: Reduction % (carrageenin edema)): 24%

SMILES: Clc1ccc(C[N+]2=C3SC=C(c4ccccc4)N3CC2)cc1Cl [Compound 20]
- inhibition in vivo at 20 mg/kg ([2]; Rattus norvegicus, po, 3 h, Table I, 20 mg/kg, oral, 1 h before carrageenin, 3 h, read-out: Reduction % (carrageenin edema)): 36%

SMILES: Brc1ccc(C2=CSC3=NCCN23)cc1 [Compound 21]
- inhibition in vivo at 40 mg/kg [2, 6]: 49%

SMILES: C#CC[N+]1=C2SC=C(c3ccc(Br)cc3)N2CC1 [Compound 22]
- inhibition in vivo at 100 mg/kg ([2]; Rattus norvegicus, po, 3 h, Table I, 100 mg/kg, oral, 1 h before carrageenin, 3 h, read-out: Reduction % (carrageenin edema)): 36%

SMILES: C#CC(C)[N+]1=C2SC=C(c3ccc(Br)cc3)N2CC1 (stereo not drawn) [Compound 23]
- inhibition in vivo at 40 mg/kg [2, 6]: 27%

SMILES: ClCC=CC[N+]1=C2SC=C(c3ccc(Br)cc3)N2CC1 [Compound 24]
- inhibition in vivo at 60 mg/kg ([2]; Rattus norvegicus, po, 3 h, Table I, 60 mg/kg, oral, 1 h before carrageenin, 3 h, read-out: Reduction % (carrageenin edema)): 20%

SMILES: CC1=CSC2=NCCN12 [Compound 25]
- inhibition in vivo at 150 mg/kg ([2]; Rattus norvegicus, po, 3 h, Table I, 150 mg/kg, oral, 1 h before carrageenin, 3 h, read-out: Reduction % (carrageenin edema)): 44%

SMILES: C#CC[N+]1=C2SC=C(C)N2CC1 [Compound 26]
- inhibition in vivo at 40 mg/kg [2, 6]: 31%

SMILES: C1=C(c2cc3ccccc3o2)N2CCN=C2S1 [Compound 27, 3-(2-benzofuranyl)-5,6-dihydro-4H-imidazo[2,1-b] thiazole]
- inhibition in vivo at 40 mg/kg [2, 6]: 40%

SMILES: Clc1ccc(C2=CSC3=NCCCN23)cc1 [Compound 28]
- inhibition in vivo at 25 mg/kg [2, 5]: 29%

SMILES: CCC1=C(c2ccccc2)N2CCCN=C2S1 [Compound 29, 2-ethyl-3-phenyl-4,5,6,7-tetrahydrothiazole[3,2-a] pyrimidine hydrobromide]
- inhibition in vivo at 50 mg/kg [2, 4]: 76%
- inhibition in vivo at 25 mg/kg [3]: 18%

SMILES: C1=C(c2ccccc2)N2CCCN=C2S1 [Compound 30]
- inhibition in vivo at 40 mg/kg [2, 6]: 25%

SMILES: CC1=C(c2ccccc2)N2CCCN=C2S1 [Compound 31]
- inhibition in vivo at 40 mg/kg [2, 6]: 48%

SMILES: O=[N+]([O-])c1ccc(C2=CSC3=NCCCN23)cc1 [Compound 32]
- inhibition in vivo at 25 mg/kg [2, 5]: 20%

SMILES: CC1=C(c2ccc(Cl)cc2)N2CCCN=C2S1 [Compound 33]
- inhibition in vivo at 10 mg/kg ([2]; Rattus norvegicus, po, 3 h, Table I, 10 mg/kg, oral, 1 h before carrageenin, 3 h, read-out: Reduction % (carrageenin edema)): 22%

SMILES: OC1(c2ccccc2)CSC2=NCCN21 (stereo not drawn) [Compound 34]
- Reduction (%) (carrageenin edema) ([2]; Table II, 100 mg/kg, oral): 70%

SMILES: CC1SC2=NCCN2C1(O)c1ccccc1 (stereo not drawn) [Compound 35]
- Reduction (%) (carrageenin edema) ([2]; Table II, 150 mg/kg, oral): 68%

SMILES: OC1(c2ccc(Cl)cc2)CSC2=NCCN21 (stereo not drawn) [Compound 36]
- Reduction (%) (carrageenin edema) ([2]; Table II, 25 mg/kg, oral): 57%

SMILES: OC1(c2ccccc2)CSC2=NCCCN21 (stereo not drawn) [Compound 37]
- Reduction (%) (carrageenin edema) ([2]; Table II, 50 mg/kg, oral): 52%

SMILES: OC1(c2ccc(Cl)cc2)CSC2=NCCCN21 (stereo not drawn) [Compound 38]
- Reduction (%) (carrageenin edema) ([2]; Table II, 100 mg/kg, oral): 76%

SMILES: COc1ccc(C2(O)CSC3=NCCCN32)cc1 (stereo not drawn) [Compound 39]
- Reduction (%) (carrageenin edema) ([2]; Table II, 40 mg/kg, oral): 27%
